Key:
VeroE6/TMPRSS2 cells = format: cell-based; conditions: 24 hours, FIG. 2A-2E
Procedure: VeroE6/TMPRSS2 cells were cultured at 37° C. in 5% of a CO2 atmosphere by using Dulbecco's Modified Eagle's Medium (DMEM, Life Technologies Corporation) added with 10% of a fetal bovine serum (FBS, Cell Culture Bioscience Corporation), 100 units/ml of penicillin, 100 μg/ml of streptomycin, 10 mM of HEPES (pH7.4) and 1 mg/ml of G418 disulfate (Nacalai Tesque, Inc.). In infection tests, it was changed to 2% of FBS and no G418 disulfate was added.
The Stephania cepharantha-derived alkaloid-containing preparation, Cepharanthine, Isotetrandrine, Cycleanine, or Berbamine were added to the medium of the VeroE6/TMPRSS2 cells and, and the cells cultured for 24 hours were fixed with 4% of paraformaldehyde, and nucleuses were stained with DAPI. Thereafter, the number of viable cells were measured using an ImageXpress Micro Confocal (Molecular Device, LLC).

[1] = test system: Novel coronavirus SARS-COV-2 Wk-521 strains (Wuhan strain); format: cell-based; conditions: for antiviral effect compared with the preparation / other alkaloids: Wuhan strain, VeroE6/TMPRSS2 cells
SARS coronavirus = conditions: cited from earlier work
[2] = test system: human coronavirus OC43 strain; conditions: early stage of infection in cells, MRC-5 human lung cells; cited from earlier work

Structure (SMILES) | cytotoxic effect (number of viable cells with increasing addition concentration) (VeroE6/TMPRSS2 cells) | antiviral effect (number of viral RNA with increasing addition concentration) [1] | antiviral effect compared with the preparation / other alkaloids [1] | antiviral effect against the SARS coronavirus (SARS coronavirus) | antiviral effects on the human coronavirus OC43 strain [2]
COc1cc2c3cc1Oc1c(OC)c(OC)cc4c1[C@@H](Cc1ccc(O)c(c1)Oc1ccc(cc1)C[C@@H]3N(C)CC2)N(C)CC4 [Berbamine] | showed cytotoxic effects | showed antiviral effects | weak antiviral effect | – | –
COc1ccc2cc1Oc1ccc(cc1)C[C@H]1c3c(cc4c(c3Oc3cc5c(cc3OC)CCN(C)[C@@H]5C2)OCO4)CCN1C [Cepharanthine] | showed cytotoxic effects | showed antiviral effects | comparable to the Stephania cepharantha-derived alkaloid-containing preparation | has an antiviral effect | have antiviral effects
COc1cc2c3c(c1OC)Oc1ccc(cc1)C[C@@H]1c4c(cc(OC)c(OC)c4Oc4ccc(cc4)C[C@H]3N(C)CC2)CCN1C [Cycleanine] | showed cytotoxic effects | showed antiviral effects | comparable to the Stephania cepharantha-derived alkaloid-containing preparation | – | –
COc1ccc2cc1Oc1ccc(cc1)C[C@H]1c3cc(c(OC)cc3CCN1C)Oc1c(OC)c(OC)cc3c1[C@@H](C2)N(C)CC3 [Isotetrandrine] | showed cytotoxic effects | showed antiviral effects | comparable to the Stephania cepharantha-derived alkaloid-containing preparation | – | –
